# Assays:
# [1] = system: flank organ hair mass in adult intact male hamsters; assay: efficacy of topical compositions in reducing flank organ hair mass in adult intact male hamsters (Tables I and II); type: in vivo, hamster; settings: 15 days (Mon-Fri) in 21-day interval, versus vehicle controls
# Method: Summarized below in Tables I and II are the results of two experiments comparing the efficacy of several compositions in reducing the flank organ hair mass in adult intact male hamsters. In each case, hamsters were treated for 15 days (Monday-Friday) during a 21-day interval. Flank organ hairs were epilated on the first day of treatment and re-epilated on the sixth day of treatment. […] The results for percent inhibition shown below are based upon comparisons between the hair mass values of hairs harvested from treated flank organs of experimental animals and those obtained from vehicle-treated control animals.
# [2] = system: brain 4-aminobutyric acid levels; settings: transformation catalyzed by mitochondrial monoamine oxidase; known secondary pharmacological effect; cited from earlier work
# [3] = system: androgen-mediated hair growth in male hamsters (flank organ hair mass); assay: inhibition of androgen-mediated hair growth in male hamsters following topical application for 21 consecutive days (flank organ hair mass); type: in vivo, hamster; settings: 500 micrograms in 10 microliters 70% ethanol, regrowth during final ten days
# Method: Five hundred micrograms of the compound in ten microliters of 70% ethanol was applied topically for 21 consecutive days. Hair mass changes were determined by comparing the regrowth of hair during the final ten days of treatment. […] Furthermore, the magnitude of hair mass inhibition in the hamsters treated with the ODC inhibitor (60%) approached that observed in 21-day castrated hamsters (78%).
# [4] = system: ornithine decarboxylase (ODC), flank organ; assay: flank organ ODC activity after topical application for 21 consecutive days; type: in vivo, hamster; settings: 500 micrograms in 10 microliters 70% ethanol, versus hamsters castrated for 21 days
# [5] = system: Flank Organ Hair Mass; assay: similar series of experiments comparing a variety of compositions, flank organ hair mass (Table III); type: in vivo, hamster; set-up: Flank Organ Hair Mass, Untreated / Flank Organ Hair Mass, Treated: unit not given here
# Method: Additional experiments were conducted to test topical regimens composed of a combination of 2(difluoromethyl)-2,5-diaminopentanoic acid along with antiandrogens. […] In each case, hamsters were treated for 15 days (Monday-Friday) during a 21-day interval. Flank organ hairs were epilated on the first day of treatment and re-epilated on the sixth day of treatment. The mass of flank organ hair represents the regrowth during the final 14 days of the 21-day interval.
# [6] = Table II, 500 micrograms per square centimeter
# [7] = 5 micrograms per square centimeter
# [8] = 50 micrograms per square centimeter
# [9] = 250 micrograms per square centimeter
# [10] = 500 micrograms per square centimeter
smiles,measurement,setting,value
"CC(=O)O[C@]1(C(C)=O)CC[C@H]2[C@@H]3C=C(Cl)C4=CC(=O)CC[C@]4(C)[C@H]3CC[C@@]21C [Chloromadinone acetate, chlormadinone acetate]",% Inhibition (flank organ hair mass),[1]; [6],41%
"C#CC(N)CCCN (stereo not shown) [5-hexyne-1,4-diamine]",brain 4-aminobutyric acid levels,[2],increases in brain 4-aminobutyric acid levels
"NCCCC(N)(C(=O)O)C(F)F (stereo not shown) [2(difluoromethyl)-2,5-diaminopentanoic acid]",magnitude of hair mass inhibition,[3],60%
same,flank organ ODC activity,[4],reduced to levels found in hamsters castrated for 21 days
same,% Inhibition (flank organ hair mass),"[1]; Table I, 500 micrograms per square centimeter",46%
same,% Inhibition (flank organ hair mass),[1]; [6],41%
same,% Inhibition (flank organ hair mass),[5]; [7],2%
same,% Inhibition (flank organ hair mass),[5]; [8],7%
same,% Inhibition (flank organ hair mass),[5]; [9],24%
same,% Inhibition (flank organ hair mass),[5]; [10],33%
same,"Flank Organ Hair Mass, Treated",[5]; [7],3.20
same,"Flank Organ Hair Mass, Treated",[5]; [8],2.85
same,"Flank Organ Hair Mass, Treated",[5]; [9],2.29
same,"Flank Organ Hair Mass, Treated",[5]; [10],1.81
same,"Flank Organ Hair Mass, Untreated",[5]; treatment group 5 micrograms per square centimeter,3.26
same,"Flank Organ Hair Mass, Untreated",[5]; treatment group 50 micrograms per square centimeter,3.05
same,"Flank Organ Hair Mass, Untreated",[5]; treatment group 250 micrograms per square centimeter,3.00
same,"Flank Organ Hair Mass, Untreated",[5]; treatment group 500 micrograms per square centimeter,2.71
"CC(=O)[C@H]1CC[C@H]2[C@@H]3CCC4=CC(=O)CC[C@]4(C)[C@H]3CC[C@]12C [Progesterone, progesterone]",% Inhibition (flank organ hair mass),"[1]; Table I, 1000 micrograms per square centimeter",50%
